# In patent US20110245311A1, “Histidine Derivatives” (priority 2010, published 2011):
# What was measured:
# mice = assay: Preclinical safety study in mice; assay type: in vivo; conditions: 300 mg/kg or 500 mg/kg orally (PO), up to 72 hours
# Procedure: Preclinical safety studies were performed with administration of different levels of doses of Compound A to mice. Toxicity was analyzed with standard clinical chemical and histopathological examination. Five mice (n=5) were treated with 300 mg/kg or 500 mg/kg orally (PO) with one hour pretreatment for PO. Autonomic signs/mortality was measured during the first hour and mortality was measured again at 3, 24, 48 and 72 hours after administration.
# Gram negative strains = assay: Antibiotic activity, plate counts on Mueller-Hinton agar, Gram negative ATCC strains; assay type: cell-based; conditions: 2 mg/ml, 1 mg/ml; plate counts after overnight incubation at 37° C.
# Procedure: The antibiotic activity of S-2-amino-3(3-phenylacetylimidazol-4-yl)propanoic acid (Compound A) was tested with a panel of standard ATCC bacteria, including 13315 Proteus vulgaris, 13883 Klebsiella pneumoniae, 25922 Escherichia coli, 27853 and Pseudomomas aeruginosa.
# Doubling dilutions of Compound A were tested on its antibiotic potentials. […] Plate counts were performed. All petri plates inoculated with 1 ml 0.5McFarland turbidity of corresponding ATCC strain.
# U-87 cells = assay: Cell viability (cell count) with U-87 cells; assay type: cell-based; conditions: Homo sapiens, U-87 MG, 72 hours, 37° C., MEM pH 7.0, read-out: EC90 (concentration resulting in greater than 90% decrease of cell numbers)
# caspase 3 = assay: In vitro caspase assay (ELISA) in U-87 cells; assay type: cell-based, human; conditions: 5 mM, 18 hours after the addition
# Procedure: U-87 cells were used to test the effect of Compound A on the apoptotic pathway.
# U-87 cells were seeded in MEM alone or in MEM supplemented with 5 mM of Compound A, in MTP. For in vitro caspase assay, the cell culture plates were removed from incubator, cells were lysed and centrifuged and the supernatant was tested for caspase levels (C3). Supernatants from each sample were tested side by side on a new microtitre plate by ELISA with AP labelled IgG C3 antibody, pNPP chromogen (Enzo Diagnostics, Farmingdale, N.Y.). Caspase assays were performed immediately after the addition of the MEM medium, with or without Compound A, and 18 hours after the addition.
# Gram positives = assay: Antibiotic activity, plate counts on Mueller-Hinton agar, Gram positives; assay type: cell-based; conditions: plate counts after overnight incubation at 37° C.
# HepG2 cells = assay: Cell viability of HepG2 cell line; assay type: cell-based; conditions: Homo sapiens
# Procedure: The antineoplastic activities of Compound A were tested with U-87, a human glioblastoma/astrocytoma cell line and HepG2, a human liver carcinoma cell line.
# The antineoplastic activity of Compound A was also measured with HepG2 cells.
smiles,measurement,setting,value
"N[C@@H](Cc1cncn1C(=O)Cc1ccccc1)C(=O)O [Compound A, (S)-2-amino-3-(3-phenylacetylimidazol-4-yl) propanoic acid]","toxicity (autonomic signs/mortality, clinical chemical and histopathological examination)",mice,No toxicity was observed
same,inhibition of Gram negative strains,Gram negative strains,did show inhibition
same,EC90,U-87 cells,5 mM
same,increase of caspase 3,caspase 3,"Exponential increase, in the scale of several orders of magnitude"
same,inhibition of Gram positives,Gram positives,No inhibition
same,EC90,HepG2 cells,5 mM
same,cytotoxicity at 5000 µM,"HepG2 cells; 5 mM, read-out: decrease in cell viability",> 90%
